EPA's ToxValDB 9.5

What was measured:
[1] = system: Rattus norvegicus; conditions: oral
[2] = system: Rattus norvegicus; conditions: short-term, duration: 28 days, oral, gavage, F, Sprague-Dawley
[3] = developmental, duration: 7 days, Sprague-Dawley, Body Weight: 30% reduction in body weight of dams + Developmental: 13% reduction in body weight of male pups
[4] = developmental, duration: 20 days, F, Sprague-Dawley, Developmental: 5-fold increased neonatal mortality on PNDs 1-3
[5] = developmental, duration: 21 days, F, Sprague-Dawley, Developmental: ~5-fold increased postnatal mortality and severe lung histopathology in pups
[6] = short-term, duration: 28 days, M, Sprague-Dawley, Body Weight: 12% decrease in terminal body weight
[7] = short-term, duration: 28 days, M, Sprague-Dawley, Neurological: Degeneration of gonadotropic cells of the pituitary gland at ?1.0 mg/kg/day / dense chromatin, condensed ribosomes, loss of …
[8] = short-term, duration: 28 days, M, Wistar, Neurological: Tonic convulsions in response to stimuli

O=S(=O)(O)C(F)(F)C(F)(F)C(F)(F)C(F)(F)C(F)(F)C(F)(F)C(F)(F)C(F)(F)F [Perfluorooctanesulfonic acid]
LOAEL ([1]; developmental, duration: 1 days, M/F, Wistar, Developmental: Decreased spatial learning ability in prenatally or postnatally exposed offspring at ?0.8 mg/kg/day and in offspring exposure…): 0.8 mg/kg-day | LOAEL ([1]; developmental, duration: 5 days, M/F, Sprague-Dawley, Body Weight: Reduced body weight in dams / approximately 98% on GD 8 and 33% on GD 20 + Developmental: Decreased birth weight in females …): 18.8 mg/kg-day | LOAEL [1, 3]: 20 mg/kg-day | NOAEL [1, 3]: 5 mg/kg-day | LOAEL [1, 4]: 2 mg/kg-day | NOAEL [1, 4]: 0.6 mg/kg-day | LOAEL [1, 5]: 2 mg/kg-day | NOAEL [1, 5]: 0.1 mg/kg-day | NOAEL ([1]; developmental, duration: 84 days, gavage, M/F, Sprague-Dawley, developmental): 7.43 mg/L | NOAEL ([1]; short-term, duration: 21 days, M, Sprague-Dawley): 10 mg/kg-day | LOAEL ([1]; short-term, duration: 21 days, M, Sprague-Dawley, Reproductive: Delayed maturation of testicular Leydig cells, decreased seminal vesicle weight, decreased epididymal sperm count, decreased …): 5 mg/kg-day | LOAEL ([1]; short-term, duration: 25 days, M, Sprague-Dawley, Endocrine: Decreases in serum corticosterone (~58%) and ACTH levels (~11%), decrease in corticotrophin releasing hormone levels in …): 0.5 mg/kg-day | NOAEL ([1]; short-term, duration: 28 days, M, Sprague-Dawley): 6 mg/kg-day | LOAEL [1, 6]: 3.21 mg/kg-day | NOAEL [1, 6]: 1.33 mg/kg-day | LOAEL ([1]; short-term, duration: 28 days, M, Sprague-Dawley, Death: 100% by day 26): 20 mg/kg-day | LOAEL ([1]; short-term, duration: 28 days, M, Sprague-Dawley, Endocrine: Decreased serum prolactin (~78%) and estradiol concentrations (~18%)): 3 mg/kg-day | LOAEL ([1]; short-term, duration: 28 days, M, Sprague-Dawley, Hepatic: Hepatocellular hypertrophy and focal necrosis at ?5 mg/kg/day / fatty degeneration at 20 mg/kg/day + Neurological: Cachexia and …): 5 mg/kg-day | NOAEL ([1]; short-term, duration: 28 days, M, Sprague-Dawley, Hepatic: Increased relative liver weight at ?0.14 mg/kg/day): 6.34 mg/kg-day | LOAEL [1, 7]: 1 mg/kg-day | NOAEL [1, 7]: 0.5 mg/kg-day | LOAEL [1, 8]: 8.5 mg/kg-day | NOAEL [1, 8]: 2 mg/kg-day | LOEL ([2]; Clinical chemistry_Alanine aminotransferase): 2.5 mg/kg-day | LOEL ([2]; Clinical chemistry_Albumin): 2.5 mg/kg-day | LOEL ([2]; Clinical chemistry_Albumin/globulin ratio): 2.5 mg/kg-day | LOEL ([2]; Clinical chemistry_Alkaline phosphatase): 2.5 mg/kg-day | NOEL ([2]; Clinical chemistry_Aspartate aminotransferase): 5 mg/kg-day | LOEL ([2]; Clinical chemistry_Cholesterol): 5 mg/kg-day | LOEL ([2]; Clinical chemistry_Direct bilirubin): 2.5 mg/kg-day | LOEL ([2]; Clinical chemistry_Free thyroxine): 0.312 mg/kg-day | NOEL ([2]; Clinical chemistry_Globulin): 5 mg/kg-day | NOEL ([2]; Clinical chemistry_Sorbitol dehydrogenase): 5 mg/kg-day | NOEL ([2]; Clinical chemistry_Testosterone): 5 mg/kg-day | NOEL ([2]; Clinical chemistry_Thyroid stimulating hormone): 5 mg/kg-day | LOEL ([2]; Clinical chemistry_Total bile acids): 2.5 mg/kg-day | LOEL ([2]; Clinical chemistry_Total bilirubin): 5 mg/kg-day | LOEL ([2]; Clinical chemistry_Total protein): 5 mg/kg-day | LOEL ([2]; Clinical chemistry_Total thyroxine): 0.312 mg/kg-day | LOEL ([2]; Clinical chemistry_Total triiodothyronine): 0.625 mg/kg-day | LOEL ([2]; Clinical chemistry_Triglycerides): 2.5 mg/kg-day | LOEL ([2]; Gene expression_Acox1): 0.312 mg/kg-day | LOEL ([2]; Gene expression_Cyp2b1): 0.312 mg/kg-day | LOEL ([2]; Gene expression_Cyp2b2): 0.312 mg/kg-day | LOEL ([2]; Gene expression_Cyp4a1): 0.312 mg/kg-day | NOEL ([2]; Hematology_Erythrocytes): 5 mg/kg-day | NOEL ([2]; Hematology_Hematocrit): 5 mg/kg-day | NOEL ([2]; Hematology_Hemoglobin): 5 mg/kg-day | NOEL ([2]; Hematology_Leukocytes): 5 mg/kg-day | LOEL ([2]; Hematology_Reticulocytes): 2.5 mg/kg-day | NOEL ([2]; Hematology_S. neutrophils): 5 mg/kg-day | LOEL ([2]; Nonneoplastic effects_Bone marrow - Hypocellularity): 2.5 mg/kg-day | NOEL ([2]; Nonneoplastic effects_Kidney - Papilla, necrosis): 5 mg/kg-day | LOEL ([2]; Nonneoplastic effects_Liver - Hepatocyte, cytoplasmic alteration): 1.25 mg/kg-day | LOEL ([2]; Nonneoplastic effects_Liver - Hepatocyte, hypertrophy): 1.25 mg/kg-day | NOEL ([2]; Nonneoplastic effects_Liver - Hepatocyte, vacuolization cytoplasmic): 5 mg/kg-day | NOEL ([2]; Nonneoplastic effects_Liver - Necrosis): 5 mg/kg-day | NOEL ([2]; Nonneoplastic effects_Nose - Olfactory epithelium, degeneration): 5 mg/kg-day | NOEL ([2]; Nonneoplastic effects_Nose - Olfactory epithelium, hyperplasia): 5 mg/kg-day | NOEL ([2]; Nonneoplastic effects_Nose - Olfactory epithelium, inflammation, suppurative): 5 mg/kg-day | NOEL ([2]; Nonneoplastic effects_Nose - Olfactory epithelium, necrosis): 5 mg/kg-day | LOEL ([2]; Nonneoplastic effects_Spleen - Extramedullary hematopoiesis, decreased): 1.25 mg/kg-day | NOEL ([2]; Nonneoplastic effects_Stomach, forestomach - Epithelium, hyperplasia): 5 mg/kg-day | NOEL ([2]; Nonneoplastic effects_Thymus - Atrophy): 5 mg/kg-day | LOEL ([2]; Organ weights_Heart - Absolute): 5 mg/kg-day | LOEL ([2]; Organ weights_Heart - Relative): 5 mg/kg-day | LOEL ([2]; Organ weights_Liver - Absolute): 0.312 mg/kg-day | LOEL ([2]; Organ weights_Liver - Relative): 0.312 mg/kg-day | NOEL ([2]; Organ weights_Lung - Absolute): 5 mg/kg-day
